Key:
[1] = biological target: T1, human Topo I (Homo sapiens, UniProt P11387); test: Toxicity in yeast overexpressing human Topo I (hTOP1) or htop1-vac mutant; format: cell-based; settings: GAL promoter, galactose-induced, vs vector
T1 construct: expressed in transfected cells; host or cells: S. cerevisiae BY4705 (S288C background), plasmid phTOP1 under the GAL promoter, vector pRS416
T1 sequence (P11387 2-765): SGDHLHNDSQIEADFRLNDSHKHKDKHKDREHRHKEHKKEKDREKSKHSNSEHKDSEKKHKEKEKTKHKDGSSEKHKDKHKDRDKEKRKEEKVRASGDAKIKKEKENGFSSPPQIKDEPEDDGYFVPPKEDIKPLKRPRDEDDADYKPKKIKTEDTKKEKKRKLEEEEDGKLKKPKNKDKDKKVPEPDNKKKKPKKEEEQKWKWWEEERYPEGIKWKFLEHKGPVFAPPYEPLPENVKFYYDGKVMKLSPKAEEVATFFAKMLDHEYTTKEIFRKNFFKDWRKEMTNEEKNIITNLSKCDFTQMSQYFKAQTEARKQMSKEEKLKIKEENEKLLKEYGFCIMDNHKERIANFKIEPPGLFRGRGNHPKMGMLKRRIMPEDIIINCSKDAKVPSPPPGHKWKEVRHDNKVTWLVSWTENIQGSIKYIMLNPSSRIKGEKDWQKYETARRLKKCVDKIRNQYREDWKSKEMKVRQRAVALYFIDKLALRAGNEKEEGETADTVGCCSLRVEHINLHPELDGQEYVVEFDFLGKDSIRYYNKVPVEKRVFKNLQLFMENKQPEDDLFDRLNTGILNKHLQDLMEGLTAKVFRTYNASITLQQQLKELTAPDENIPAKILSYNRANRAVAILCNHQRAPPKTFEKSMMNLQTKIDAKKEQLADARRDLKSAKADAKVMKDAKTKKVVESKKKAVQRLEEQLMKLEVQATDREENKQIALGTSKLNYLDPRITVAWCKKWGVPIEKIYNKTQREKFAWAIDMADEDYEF
Text: The strains are derived from the A364a genetic background, with the exception of BY4705, which is derived from the S288C background. Gene disruptions were generated by PCR fragment directed replacement (Baudin, et al., Nucleic Acids Research 21: 3329–30 (1993), Guldener, et al., Nucleic Acids Research 24: 2519–24 (1996)). Yeast overexpressing topoisomerase II was constructed by a PCR fragment directed promoter replacement of the topoisomerase II promoter with the yeast GPD promoter flanked upstream by the URA3 marker. All strains (except BY4705) bear the pleitropic drug sensitizing mutations erg6, pdr1, and pdr3 (Balzi, et al., Journal of Bioenergetics & Biomembranes 27: 71–6 (1995), Delaveau, et al, Molecular & General Genetics 244: 501–11 (1994), Gaber, et al., Molecular & Cellular Biology 9: 3447–56 (1989), Saunders, et al., Canadian Journal of Genetics & Cytology, 24: 493–503 (1982). Subik, et al, Current Genetics 10: 665–70 (1986)). The haploid yeast strain BY4705 (Brachmann, et al., Yeast 14: 115–32 (1998)) was used in the experiments described in FIG. 5. Plasmids expressing yeast or human topoisomerase I genes under the GAL promoter (Knab, et al., Journal of Biological Chemistry 268: 22322–30 (1993). Knab, et al., Journal of Biological Chemistry 270: 6141–8 (1995)) were transformed into BY4705 using standard procedures. […]

[2] = Cell based assays (toxicity, unspecified)

SMILES	effect of hTOP1 overexpression on toxicity [1]	IC50 compared to camptothecin [2]
O=C(CCl)Nc1ccc(C(=O)N/N=C/c2ccc(Cl)cc2)cc1 [compound Ia]	Little or no accentuation	higher IC50's
O=c1c(Cl)c(Cl)cnn1CCCl [compound IIa]	accentuates the toxicity	higher IC50's
